# Data reported in US5354864A, “3-(9-acridinylamino)-5-hydroxymethylaniline derivatives as anticancer agents” (Sloan-Kettering Institute for Cancer Research, priority 1992, dated 1994).
# Like-named read-outs stand apart in the source and are kept apart here.
# Columns and labels:
# [1] = Lethal doses to BDF^1 mice; format: in vivo; settings: i.p.
# Description: ^b Lethal Doses of these compounds to BDF^1 mice have been
# [2] = tested on: mouse leukemia L1210 cells; assay: In vitro cytotoxicity, growth inhibition of mouse leukemia L1210 cells; format: cell-based
# [3] = tested on: human leukemia HL-60 cells; assay: In vitro cytotoxicity, growth inhibition of human leukemia HL-60 cells; format: cell-based
# L1210 tumor = assay: Chemotherapeutic effects on L1210 tumor bearing BDF^1 mice; format: in vivo, mouse; settings: day 1, QD × 4 + Day 7, QD × 2; for % Increase in lifespan: 25% or greater indicates therapeutic activity; for Average survival time: control 7.2 days
# Description: Table 2 lists typical examples of chemotherapeutic effects of 3-(9-acridinylamino)-5-hydroxymethylaniline derivatives of formula I on L1210 tumor bearing BDF^1 mice in vivo.
# ^a Female mice, 19-21 grams, inoculated with 10^6 L1210 cells i.p
# treatment schedule was day 1, QD × 4 + Day 7, QD × 2, i.p.
# L1210 leukemia = settings: Cain et al., J. Med. Chem. 1975; cited from earlier work
# DNA [4] = settings: Wilson et al. 1984; cited from earlier work
# solid tumors = settings: Casper et al. 1980; cited from earlier work
# [5] = 37° C.; cited from earlier work
# experimental tumors = settings: Corbett et al. 1977; Goldin et al. 1981; cited from earlier work
# DNA [6] = settings: Nelson et al. 1984; Pommier et al. 1985; cited from earlier work
# topoisomerase II = settings: Nelson et al. 1984; Pommier et al. 1985; cited from earlier work
# [7] = mouse leukemia L1210, read-out: IC50 for Cell growth Inhibition, L1210
# [8] = human leukemia HL-60, read-out: IC50 for Cell growth Inhibition, HL60
SMILES,"IC50 [2, 7]","IC50 [3, 8]",% Increase in lifespan (L1210 tumor; 5 mg/kg i.p.),"Average weight change, Day 7 (L1210 tumor; 5 mg/kg i.p.)",Average survival time (L1210 tumor; 5 mg/kg i.p.),% Increase in lifespan (L1210 tumor; 10 mg/kg i.p.),"Average weight change, Day 7 (L1210 tumor; 10 mg/kg i.p.)",Average survival time (L1210 tumor; 10 mg/kg i.p.),"Lethal dose to BDF^1 mice ([1]; QD Day 1-Day 4, Day 7-Day 8)",% Increase in lifespan (L1210 tumor; 20 mg/kg i.p.),"Average weight change, Day 7 (L1210 tumor; 20 mg/kg i.p.)","Average weight change, Day 11 (L1210 tumor; 20 mg/kg i.p.)",Average survival time (L1210 tumor; 20 mg/kg i.p.),other results
"Nc1cc(CO)cc(Nc2c3ccccc3nc3ccccc23)c1 [Ia, 3-(9-acridinylamino)-5-hydroxymethylaniline]",26 nM,97 nM,94%,+1.0 grams,14.0 days,108%,-0.5 grams,15.0 days,,,,,,"Lethal dose to BDF^1 mice ([1]; QD Day 1-Day 4 + Day 7): 20 mg/kg; Average weight change, Day 11 (L1210 tumor; 5 mg/kg i.p.): +2.0 grams; Average weight change, Day 11 (L1210 tumor; 10 mg/kg i.p.): +0.0 grams"
"CC(=O)CCC(=O)Nc1cc(COC(=O)CCC(C)=O)cc(Nc2c3ccccc3nc3ccccc23)c1 [Ib, 3-(9-acridinylamino)-N,O-bis(acetonylacetyl)-5-hydroxymethylaniline]",98 nM,3 nM,25%,+2.0 grams,9.0 days,53%,+2.0 grams,11.0 days,50 mg/kg,94%,-3.0 grams,-4.0 grams,14.0 days,
"CC(=O)CCC(=O)Nc1cc(CO)cc(Nc2c3ccccc3nc3ccccc23)c1 [Ic, 3-(9-acridinylamino)-5-hydroxymethyl-N-acetonylacetylaniline]",73 nM,5 nM,53%,+2.0 grams,11.0 days,25%,+1.5 grams,9.0 days,50 mg/kg,192%,-1.5 grams,-2.0 grams,21.0 days,
"O=C(O)CCC(=O)Nc1cc(COC(=O)CCC(=O)O)cc(Nc2c3ccccc3nc3ccccc23)c1 [Id, 3-(9-acridinylamino)-5-succinyloxymethyl-N-succinylaniline]",2000 nM,859 nM,,,,,,,,,,,,
"O=C(O)CCC(=O)Nc1cc(CO)cc(Nc2c3ccccc3nc3ccccc23)c1 [Ie, 3-(9-acridinylamino)-5-hydroxymethyl-N-succinylaniline]",1070 nM,999 nM,,,,,,,,,,,,
"COc1cc(NS(C)(=O)=O)ccc1Nc1c2ccccc2nc2ccccc12 [m-AMSA, 4'-(9-acridinylamino)methanesulfon-m-anisidide]",,,,,,,,,,,,,,"activity against the L1210 leukemia (L1210 leukemia): high activity; chromosomal aberrations and DNA damage (DNA [4]): induced chromosomal aberrations and DNA damage; activity against a number of solid tumors during Phase II trials (solid tumors): inactive; IC50 ([2]; Mus musculus, L1210, read-out: IC50 for Cell growth Inhibition, L1210): 4 nM; half life in the presence of fresh mouse blood [5]: about 23 minutes; IC50 ([3]; Homo sapiens, HL-60, read-out: IC50 for Cell growth Inhibition, HL60): 80 nM; activity against a spectrum of experimental tumors (experimental tumors): high activity; DNA intercalation (DNA [6]): DNA intercalator; topoisomerase II inhibition (topoisomerase II): topoisomerase II inhibitor"
